In patent publication US20060276464A1, “Diarylsulfone sulfonamides and use thereof” (Wyeth, priority 2005, published 2006):
Where two headings read alike, the source gives them in different places.

Target: T1, SFRP-1 (Homo sapiens, UniProt Q8N474)
T1 sequence (Q8N474 32-314): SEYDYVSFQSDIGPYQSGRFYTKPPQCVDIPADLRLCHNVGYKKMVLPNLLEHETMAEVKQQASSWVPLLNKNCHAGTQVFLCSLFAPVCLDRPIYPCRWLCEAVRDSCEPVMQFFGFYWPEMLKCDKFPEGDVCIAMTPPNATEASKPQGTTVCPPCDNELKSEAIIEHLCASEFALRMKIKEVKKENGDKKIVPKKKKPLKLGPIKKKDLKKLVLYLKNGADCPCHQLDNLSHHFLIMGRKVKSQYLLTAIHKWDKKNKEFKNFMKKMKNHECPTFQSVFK
Experiment: Cell-based assay for in vitro measurement of SFRP-1/SARP2 antagonist activity (U2OS cells co-transfected with 16x TCF-tk-Luciferase reporter, Wnt and hSFRP-1);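 further: U2OS cells co-transfected with a TCF-tk luciferase reporter, a Wnt vector, hSFRP-1 or empty vector and CMV-βgal, luciferase luminescence read in cell lysates alongside βgal activity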
Settings: for fold induction at 15 µM / fold induction at 30 µM / fold induction at 10 µM / fold induction at 20 µM: U2OS; for fold induction at 10 µM: read-out: Fold Induction with SFRP-1, U2OS cells, single dose 10 μM, luciferase reporter, fold induction over SFRP-1 control

[1] = read-out: Fold Induction with SFRP-1, Conc 15 μM, with SFRP-1, fold induction over SFRP-1 control, single dose
[2] = read-out: Fold Induction without SFRP-1, Conc 15 μM, without SFRP-1, single dose
[3] = read-out: Fold Induction with SFRP-1, Conc 30 μM, with SFRP-1, fold induction over SFRP-1 control, single dose
[4] = read-out: Fold Induction without SFRP-1, Conc 30 μM, without SFRP-1, single dose
[5] = read-out: Fold Induction with SFRP-1, Conc 20 μM, with SFRP-1, fold induction over SFRP-1 control, single dose
[6] = read-out: Fold Induction without SFRP-1, Conc 20 μM, without SFRP-1, single dose

| SMILES | fold induction at 15 µM [1] | fold induction at 15 µM [2] | also measured |
| --- | --- | --- | --- |
| CCOc1ccc(CCNS(=O)(=O)c2cc(S(=O)(=O)c3ccccc3)ccc2OC)cc1OC [Example 158, N-[2-(4-ethoxy-3-methoxyphenyl)ethyl]-2-methoxy-5-(phenylsulfonyl)benzenesulfonamide] | 1.4 | 1.1 |  |
| Cc1ccc(S(=O)(=O)c2ccc(F)cc2)cc1S(=O)(=O)NCCc1cccc(F)c1 [Example 24, N-[2-(3-fluorophenyl)ethyl]-5-[(4-fluorophenyl)sulfonyl]-2-methylbenzenesulfonamide] |  |  | fold induction at 30 µM [3]: 0.3; fold induction at 30 µM [4]: 0.3 |
| CCN(CC)CCCNS(=O)(=O)c1cccc(S(=O)(=O)c2ccccc2)c1 [Example 198, N-[3-(diethylamino)propyl]-3-(phenylsulfonyl)benzenesulfonamide] |  |  | fold induction at 30 µM [3]: 1.1; fold induction at 30 µM [4]: 1.3 |
| O=S(=O)(NCCc1cccc(F)c1)c1cccc(S(=O)(=O)c2ccccc2)c1 [Example 81, N-[2-(3-fluorophenyl)ethyl]-3-(phenylsulfonyl)benzenesulfonamide] | 1 | 0.9 |  |
| CC(C)(C)c1ccc(S(=O)(=O)N2CCC(NS(=O)(=O)c3cc(S(=O)(=O)c4ccccc4)ccc3C(F)(F)F)CC2)cc1 [Example 748, N-{1-[(4-tert-butylphenyl)sulfonyl]piperidin-4-yl}-5-(phenylsulfonyl)-2-(trifluoromethyl)benzenesulfonamide] |  |  | fold induction at 10 µM: 2.8 |
| COc1ccc(S(=O)(=O)c2ccccc2)cc1S(=O)(=O)NCCCn1ccnc1 [Example 242, N-[3-(1H-imidazol-1-yl)propyl]-2-methoxy-5-(phenylsulfonyl)benzenesulfonamide] | 2.3 | 1.2 |  |
| COC(=O)CCNS(=O)(=O)c1cc(S(=O)(=O)c2ccccc2)ccc1OC [Example 233, methyl N-{[2-methoxy-5-(phenylsulfonyl)phenyl]sulfonyl}-beta-alaninate] | 1.5 | 1 |  |
| O=S(=O)(NCCO)c1cc(S(=O)(=O)c2ccccc2)ccc1Cl [Example 673, 2-chloro-N-(2-hydroxyethyl)-5-(phenylsulfonyl)benzenesulfonamide] |  |  | EC50: 15.9 µM; fold induction at 10 µM: 2 |
| COc1ccccc1CCNS(=O)(=O)c1cc(S(=O)(=O)c2ccccc2)ccc1C [Example 32, N-[2-(2-methoxyphenyl)ethyl]-2-methyl-5-(phenylsulfonyl)benzenesulfonamide] |  |  | fold induction at 30 µM [3]: 0.5; fold induction at 30 µM [4]: 0.5 |
| Cc1ccc(S(=O)(=O)c2cccnc2)cc1S(=O)(=O)NCCc1ccccn1 [Example 426, 2-methyl-N-(2-pyridin-2-ylethyl)-5-(pyridin-3-ylsulfonyl)benzenesulfonamide] | 1.3 | 0.8 |  |
| CCc1ccc(S(=O)(=O)c2ccccc2)cc1S(=O)(=O)N1CCN(CCN2CCOCC2)CC1 [Example 287, 4-[2-(4-{[2-ethyl-5-(phenylsulfonyl)phenyl]sulfonyl}piperazin-1-yl)ethyl]morpholine] | 2.1 | 1.2 |  |
| Cc1ccc(S(=O)(=O)c2ccc(F)cc2)cc1S(=O)(=O)NC1Cc2ccccc2C1 [Example 249, N-2,3-dihydro-1H-inden-2-yl-5-[(4-fluorophenyl)sulfonyl]-2-methylbenzenesulfonamide] |  |  | fold induction at 20 µM [5]: 1.9; fold induction at 20 µM [6]: 0.8 |
| O=S(=O)(NCCc1ccccc1F)c1cccc(S(=O)(=O)c2ccccc2)c1 [Example 82, N-[2-(2-fluorophenyl)ethyl]-3-(phenylsulfonyl)benzenesulfonamide] | 1.2 | 1 |  |
| O=S(=O)(NCCc1ccncc1)c1cccc(S(=O)(=O)c2ccccc2)c1 [Example 187, 3-(phenylsulfonyl)-N-(2-pyridin-4-ylethyl)benzenesulfonamide] |  |  | fold induction at 30 µM [3]: 1.9; fold induction at 30 µM [4]: 1 |
| O=S(=O)(NC1Cc2ccccc2C1)c1cccc(S(=O)(=O)c2ccccc2)c1 [Example 258, N-2,3-dihydro-1H-inden-2-yl-3-(phenylsulfonyl)benzenesulfonamide] |  |  | fold induction at 20 µM [5]: 1.2; fold induction at 20 µM [6]: 1 |
| O=S(=O)(NCCN1CCOCC1)c1cccc(S(=O)(=O)c2ccccc2)c1 [Example 191, N-(2-morpholin-4-ylethyl)-3-(phenylsulfonyl)benzenesulfonamide] |  |  | fold induction at 30 µM [3]: 1.2; fold induction at 30 µM [4]: 1.2 |
| Cc1ccc(S(=O)(=O)c2ccccc2)c(C)c1S(=O)(=O)NCCc1ccccn1 [Example 472, 2,6-dimethyl-3-(phenylsulfonyl)-N-(2-pyridin-2-ylethyl)benzenesulfonamide] | 0.9 | 0.9 |  |
| CN1CCCC1CCNS(=O)(=O)c1cccc(S(=O)(=O)c2ccccc2)c1 (stereo not shown) [Example 186, N-[2-(1-methylpyrrolidin-2-yl)ethyl]-3-(phenylsulfonyl)benzenesulfonamide] |  |  | fold induction at 30 µM [3]: 1.3; fold induction at 30 µM [4]: 1.3 |
| Cc1ccc(S(=O)(=O)c2ccc(C)c(S(=O)(=O)NC3Cc4ccccc4C3)c2)cc1 [Example 252, N-2,3-dihydro-1H-inden-2-yl-2-methyl-5-[(4-methylphenyl)sulfonyl]benzenesulfonamide] |  |  | fold induction at 20 µM [5]: 2.6; fold induction at 20 µM [6]: 1 |
| Cc1cc(C)cc(S(=O)(=O)c2ccc(C(C)C)c(S(=O)(=O)NCCc3ccccn3)c2)c1 [Example 454, 5-[(3,5-dimethylphenyl)sulfonyl]-2-isopropyl-N-(2-pyridin-2-ylethyl)benzenesulfonamide] | 1.7 | 1.1 |  |
| Cc1cc(C)c(S(=O)(=O)c2ccccc2)cc1S(=O)(=O)NCCc1ccccn1 [Example 326, 2,4-dimethyl-5-(phenylsulfonyl)-N-(2-pyridin-2-ylethyl)benzenesulfonamide] | 2.4 | 1 |  |

More lines, main results first:

| fold induction at 15 µM [1] | fold induction at 15 µM [2] | SMILES | also measured |
| --- | --- | --- | --- |
| 1.4 | 1.2 | COc1ccc(S(=O)(=O)c2ccccc2)cc1S(=O)(=O)NC1Cc2ccccc2C1 [Example 269, N-2,3-dihydro-1H-inden-2-yl-2-methoxy-5-(phenylsulfonyl)benzenesulfonamide] |  |
| 1.1 | 0.9 | COc1ccc(S(=O)(=O)c2ccccc2)cc1S(=O)(=O)NCCN1CCOCC1 [Example 237, 2-methoxy-N-(2-morpholin-4-ylethyl)-5-(phenylsulfonyl)benzenesulfonamide] | Fold Induction with SFRP-1 (Conc 15 μM, with SFRP-1, fold induction over SFRP-1 control, single dose): 1.4 fold |
| 3 | 1 | Cc1ccc(S(=O)(=O)c2ccc(F)cc2)cc1S(=O)(=O)NCCc1c[nH]cn1 [Example 167, 5-[(4-fluorophenyl)sulfonyl]-N-[2-(1H-imidazol-4-yl)ethyl]-2-methylbenzenesulfonamide] |  |
| 1.7 | 1 | Cc1cc(C)c(S(=O)(=O)c2ccc(F)cc2)cc1S(=O)(=O)NCCC1CCOCC1 [Example 333, 5-[(4-fluorophenyl)sulfonyl]-2,4-dimethyl-N-[2-(tetrahydro-2H-pyran-4-yl)ethyl]benzenesulfonamide] |  |
| 1.3 | 1.1 | Cc1ccc(S(=O)(=O)c2ccccc2)cc1S(=O)(=O)NCCCc1ccccc1 [Example 244, 2-methyl-N-(3-phenylpropyl)-5-(phenylsulfonyl)benzenesulfonamide] |  |
| 1.9 | 0.9 | Cc1ccc(S(=O)(=O)c2ccc(Br)cc2)cc1S(=O)(=O)NC1CCOCC1 [Example 375, 5-[(4-bromophenyl)sulfonyl]-2-methyl-N-(tetrahydro-2H-pyran-4-yl)benzenesulfonamide] |  |
| 3.6 | 1.3 | Cc1ccc(S(=O)(=O)c2ccccc2)cc1S(=O)(=O)NCCCN(C)C [Example 216, N-[3-(dimethylamino)propyl]-2-methyl-5-(phenylsulfonyl)benzenesulfonamide] |  |
| 2.2 | 1.3 | Cc1ccc(S(=O)(=O)c2ccccc2)cc1S(=O)(=O)NCCN1CCCCC1 [Example 209, 2-methyl-5-(phenylsulfonyl)-N-(2-piperidin-1-ylethyl)benzenesulfonamide] |  |
| 2.1 | 0.9 | Cc1ccc(S(=O)(=O)c2ccc(F)cc2)cc1S(=O)(=O)NCC1CCOCC1 [Example 383, 5-[(4-fluorophenyl)sulfonyl]-2-methyl-N-(tetrahydro-2H-pyran-4-ylmethyl)benzenesulfonamide] |  |
| 2.3 | 0.7 | Cc1ccc(S(=O)(=O)c2ccccc2)cc1S(=O)(=O)NCCN1CCOCC1 [Example 211, 2-methyl-N-(2-morpholin-4-ylethyl)-5-(phenylsulfonyl)benzenesulfonamide] |  |
| 2.3 | 0.9 | Cc1ccc(S(=O)(=O)c2ccc(F)cc2)cc1S(=O)(=O)NCCCN1CCCC1=O [Example 170, 5-[(4-fluorophenyl)sulfonyl]-2-methyl-N-[3-(2-oxopyrrolidin-1-yl)propyl]benzenesulfonamide] |  |
